Results on one molecule are retold here after patent publication US6811965B2, “Kidney perfusion solution containing nitric oxide donor, inhibitor of NOS2, glutathione, gluconate and methods of use” (priority 2000, dated 2004).

Test [1] relates to Porcine kidneys. In words: Pulsatile perfusion preservation of explanted porcine kidneys. As to conditions: GSNO 90 micromolar, L-NIL 694 micromolar. On the procedure:
GSNO and L-NIL dihydrate hydrochloride were purchased from Alexis Corporation (San Diego, Calif.). Solution A was prepared by weighing out 30 milligrams of GSNO powder and adding it to 1 milliliter of Belzer Machine Perfusion solution (Transmed, Elk Grove, Minn.), and then injecting it into 1 liter of Belzer Perfusion solution while the perfusion solution was circulating through a Waters Instruments (Rochester, Minn.) kidney perfusion circuit (final concentration: 30 milligrams/liters; 90 micromolar). Solution B was prepared by weighing out 187 milligrams of L-NIL dihydrate hydrochloride powder and adding it to 3.5 milliliters of Belzer Machine Perfusion solution, and then injecting it into Solution A while the solution was circulating through a Waters Instruments kidney perfusion circuit (final concentration: 187 milligrams/liter; 694 micromolar).
Porcine kidneys were obtained following a warm ischemic time of 30-45 minutes. The kidneys were flushed with 1 L of Lactated Ringer's solution at 5 degrees C., and then flushed with 1 L Viaspan™ solution (DuPont, Wilmington, Del.) at 5 degrees C. The kidneys were then stored at 5 degrees C. for 3-30 h, at which time the kidneys were placed on a Waters Instruments (Rochester, Minn.) kidney perfusion circuit and perfused with 1 L of Belzer Machine Perfusion solution (Transmed, Elk Grove, Minn.). During the perfusion period, the kidneys were kept at a constant pressure of 40 mmHg. Eight kidneys were perfused with Belzer Machine Perfusion solution only, another eight kidneys were perfused with Belzer Machine Perfusion solution containing solution A (prepared as in Example 1), and a further eight kidneys were perfused with Belzer Machine Perfusion solution containing Solution B (prepared as in Example 1).
Hourly samples (3 ml total) were taken from each kidney for at least 5 hours, and in some cases 6 hours. Blood chemistry was analyzed using a GEMStat analyzer (Instruments Laboratory, Boston, Mass.). Statistical analyses were performed using Sigmastat software (SPSS, Chicago, Ill.).

The subject of test [2] is porcine coronary arteries. Conditions: porcine model of balloon angioplasty and subsequent endovascular radiation; cited from earlier work.
The mark [3] stands for this setting: statistically significant effect relative to control perfusion solution, 5-6 h.

For `N[C@@H](CCC(=O)N[C@@H](CSN=O)C(=O)NCC(=O)O)C(=O)O` [GSNO, S-nitrosoglutathione], the “Vascular Resistance” value in test [1] (statistically significant effect relative to control (Belzer Machine Perfusion solution only), constant pressure 40 mmHg, hourly samples 5-6 h) is recorded as “Lower”. In test [1] (setting [3]), the “Base Excess” value is recorded as “More”, the “Ca2+” value was “Higher”, the Hematocrit entry is recorded as “Lower” and the “Oxygen Saturation” value is “Equal”. Moreover, the Flow result in test [1] (statistically significant effect relative to control perfusion solution, 40 mmHg, 5-6 h) is “Higher”. Further, the thrombosis entry in test [2] was “suppress thrombosis”.
